# Test results from US7645785B2, “Benzimidazole derivatives” (Hoffmann-La Roche Inc., priority 2006, dated 2010).
# Columns and labels:
# [1] = biological target: T1, FXR ligand binding domain (GST-FXR LBD fusion protein) (Homo sapiens, UniProt Q96RI1); test: Radioligand binding assay (scintillation proximity, radioligand displacement)
# T1 construct: made in house; host or cells: E. coli BL21 (pLysS)
# T1 sequence (Q96RI1 193-472 isoform Q96RI1-2 limits assumed): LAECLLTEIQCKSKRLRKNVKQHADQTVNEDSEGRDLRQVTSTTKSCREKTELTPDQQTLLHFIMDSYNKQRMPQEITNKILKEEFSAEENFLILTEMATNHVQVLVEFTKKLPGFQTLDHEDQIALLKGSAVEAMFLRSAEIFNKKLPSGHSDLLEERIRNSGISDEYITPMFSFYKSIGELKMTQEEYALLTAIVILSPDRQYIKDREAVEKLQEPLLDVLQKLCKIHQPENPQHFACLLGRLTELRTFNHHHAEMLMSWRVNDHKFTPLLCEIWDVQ
# Description: The following tests were carried out in order to determine the activity of the compounds of formula (I). Background information on the binding assay can be found in: Nichols J S et al. “Development of a scintillation proximity assay for peroxisome proliferator-activated receptor gamma ligand binding domain”, (1998) Anal. Biochem. 257: 112-119.
# (§1) Bacterial and mammalian expression vectors were constructed to produce glutathione-s-transferase (GST) and Gal4 DNA binding domain (GAL) proteins fused to the ligand binding domain (LBD) of human FXR (aa 193-473). To accomplish this, the portions of the sequences encoding the FXR LBD were amplified by polymerase chain reaction (PCR) from a full-length clone by PCR and then subcloned into the plasmid vectors. The final clone was verified by DNA sequence analysis.
# The induction, expression, and subsequent purification of GST-LBD fusion protein was performed in E. coli strain BL21 (pLysS) cells by standard methods (Current Protocols in Molecular Biology, Wiley Press, ed. Ausubel et al).
# Radioligand Binding Assay
# Binding of test substances to the FXR ligand binding domain was assessed in a radioligand displacement assay. […] All binding assays were performed in 96-well plates and the amount of bound ligand was measured on a Packard TopCount using OptiPlates (Packard). […]
# [2] = biological target: T2, FXR-LBD (pFA-FXR-LBD, Gal4 fusion) in BHK21 cells (Homo sapiens, UniProt Q96RI1); test: Luciferase transcriptional reporter gene assay; type: cell-based
# T2 sequence (Q96RI1 262-486 limits assumed): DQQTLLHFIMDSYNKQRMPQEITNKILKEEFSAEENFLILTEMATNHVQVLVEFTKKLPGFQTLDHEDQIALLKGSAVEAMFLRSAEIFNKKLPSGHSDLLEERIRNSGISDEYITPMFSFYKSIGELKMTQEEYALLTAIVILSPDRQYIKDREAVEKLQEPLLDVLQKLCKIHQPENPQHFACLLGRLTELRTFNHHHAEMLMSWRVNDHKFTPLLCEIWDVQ
# From the text: as §1
# Luciferase Transcriptional Reporter Gene Assays
# Baby hamster kidney cells (BHK21 ATCC CCL10) were grown in DMEM medium containing 10% FBS at 37° C. in a […]:5% CO2 atmosphere. Cells were seeded in 6-well plates at a density of 10^5 cells/well and then transfected with the pFA-FXR-LBD or expression plasmid plus a reporter plasmid. […] Six hours following transfection, the cells were harvested by trypsinization and seeded in 96-well plates at a density of 10^4 cells/well. […] Luminescence, as a measure of luciferase activity, was detected in a Packard TopCount. Transcriptional activation in the presence of a test substance was expressed as fold-change in luminescence compared to that of cells incubated in the absence of the substance. EC50 values were calculated using the XLfit program (ID Business Solutions Ltd. UK).
SMILES,IC50 [1],EC50 [2]
"CC(C)CC(C(=O)NC1CCCCC1)n1c(-c2ccc(Cl)cc2)nc2ccccc21 (stereo not shown) [Example 2, 2-[2-(4-chloro-phenyl)-benzoimidazol-1-yl]-4-methyl-pentanoic acid cyclohexylamide]",1500 nM,700 nM
"COc1ccc(-c2nc3ccccc3n2C(C(=O)NCc2ccccc2)C2CCCCC2)c(OC)c1 (stereo not shown) [Example 34, N-benzyl-2-cyclohexyl-2-[2-(2,4-dimethoxy-phenyl)-benzoimidazol-1-yl]-acetamide]",500 nM,86 nM
